{
  "source": "patent USRE39181E1",
  "about": "“Aqueous risperidone formulations” (priority 1994, dated 2006)",
  "conditions": "room temperature",
  "data": [
    {"substance": "risperidone tartrate", "values": [
      {"measurement": "solubility", "setting": "aqueous media", "result": "about 80 mg/ml"},
      {"measurement": "solubility relative to risperidone hydrochloride", "result": "about 4 times"}
    ]}
  ]
}
